Assay results published in ChEMBL document CHEMBL3046814, “Induction effects of host plants on insecticide susceptibility and detoxification enzymes of Bemisia tabaci (Hemiptera: Aleyrodidae)” (2011).
In brackets after ≈: the same amount, converted by molar mass.

What was measured:
Type in all cases: functional
Bemisia tabaci [1] = test: Insecticidal activity against Bemisia tabaci (sweet potato whitefly) infested tomato leaves assessed as mortality after 48 hr by leaf dip method; details: foliar
Bemisia tabaci [2] = test: Insecticidal activity against Bemisia tabaci (sweet potato whitefly) infested cabbage leaves assessed as mortality after 48 hr by leaf dip method; details: foliar
Bemisia tabaci [3] = test: Insecticidal activity against Bemisia tabaci (sweet potato whitefly) infested cotton leaves assessed as mortality after 48 hr by leaf dip method; details: foliar
Bemisia tabaci [4] = test: Insecticidal activity against Bemisia tabaci (sweet potato whitefly) infested cucumber leaves assessed as mortality after 48 hr by leaf dip method; details: foliar
Bemisia tabaci [5] = test: Insecticidal activity against Bemisia tabaci (sweet potato whitefly) infested poinsettia leaves assessed as mortality after 48 hr by leaf dip method; details: foliar
Bemisia tabaci [6] = test: Resistance ratio of LC50 for Bemisia tabaci (sweet potato whitefly) infested poinsettia leaves to LC50 for Bemisia tabaci (sweet potato whitefly) infested tomato leaves
Bemisia tabaci [7] = test: Resistance ratio of LC50 for Bemisia tabaci (sweet potato whitefly) infested poinsettia leaves to LC50 for Bemisia tabaci (sweet potato whitefly) infested cucumber leaves
Bemisia tabaci [8] = test: Resistance ratio of LC50 for Bemisia tabaci (sweet potato whitefly) infested poinsettia leaves to LC50 for Bemisia tabaci (sweet potato whitefly) infested cabbage leaves
Bemisia tabaci [9] = test: Resistance ratio of LC50 for Bemisia tabaci (sweet potato whitefly) infested squash leaves to LC50 for Bemisia tabaci (sweet potato whitefly) infested cabbage leaves
Bemisia tabaci [10] = test: Resistance ratio of LC50 for Bemisia tabaci (sweet potato whitefly) infested squash leaves to LC50 for Bemisia tabaci (sweet potato whitefly) infested cotton leaves

CC[C@H](C)[C@H]1O[C@]2(C=C[C@@H]1C)C[C@@H]1C[C@@H](C/C=C(\C)[C@@H](O[C@H]3C[C@H](OC)[C@@H](O[C@H]4C[C@H](OC)[C@@H](O)[C@H](C)O4)[C@H](C)O3)[C@@H](C)/C=C/C=C3\CO[C@@H]4[C@H](O)C(C)=C[C@@H](C(=O)O1)[C@]34O)O2.CO[C@H]1C[C@H](O[C@H]2[C@H](C)O[C@@H](O[C@@H]3/C(C)=C/C[C@@H]4C[C@@H](C[C@]5(C=C[C@H](C)[C@@H](C(C)C)O5)O4)OC(=O)[C@@H]4C=C(C)[C@@H](O)[C@H]5OC/C(=C\C=C\[C@@H]3C)[C@]54O)C[C@@H]2OC)O[C@@H](C)[C@@H]1O [ABAMECTIN]
LC50 (Bemisia tabaci [1]): 0.4 µg/mL
LC50 (Bemisia tabaci [2]): 0.3 µg/mL
LC50 (Bemisia tabaci [3]): 0.7 µg/mL
LC50 (Bemisia tabaci [4]): 0.5 µg/mL
LC50 (Bemisia tabaci [5]): 0.74 µg/mL

C/C(=N\C#N)N(C)Cc1ccc(Cl)nc1 [ACETAMIPRID]
LC50 (Bemisia tabaci [1]): 8.73 µg/mL (≈ 39.2 µM)
LC50 (Bemisia tabaci [2]): 17.7 µg/mL (≈ 79.5 µM)
LC50 (Bemisia tabaci [3]): 66.4 µg/mL (≈ 298 µM)
RatioLC50 (Bemisia tabaci [6]): 14.8
RatioLC50 (Bemisia tabaci [7]): 10.34
LC50 (Bemisia tabaci [4]): 12.4 µg/mL (≈ 55.7 µM)
LC50 (Bemisia tabaci [5]): 129 µg/mL (≈ 579 µM)

Cc1c(COC(=O)[C@@H]2[C@H](/C=C(\Cl)C(F)(F)F)C2(C)C)cccc1-c1ccccc1 [BIFENTHRIN]
LC50 (Bemisia tabaci [1]): 115 µg/mL (≈ 272 µM)
LC50 (Bemisia tabaci [2]): 145 µg/mL (≈ 343 µM)
LC50 (Bemisia tabaci [3]): 228 µg/mL (≈ 539 µM)
RatioLC50 (Bemisia tabaci [6]): 4.02
RatioLC50 (Bemisia tabaci [8]): 3.19
LC50 (Bemisia tabaci [4]): 462 µg/mL (≈ 1090 µM)
LC50 (Bemisia tabaci [5]): 278 µg/mL (≈ 657 µM)
RatioLC50 (Bemisia tabaci [9]): 7.5
RatioLC50 (Bemisia tabaci [10]): 7.5

CCCCN(CCCC)SN(C)C(=O)Oc1cccc2c1OC(C)(C)C2 [CARBOSULFAN]
LC50 (Bemisia tabaci [1]): 586 µg/mL (≈ 1540 µM)
LC50 (Bemisia tabaci [2]): 696 µg/mL (≈ 1830 µM)
LC50 (Bemisia tabaci [3]): 2880 µg/mL (≈ 7560 µM)
RatioLC50 (Bemisia tabaci [6]): 6.36
RatioLC50 (Bemisia tabaci [8]): 5.36
LC50 (Bemisia tabaci [4]): 3090 µg/mL (≈ 8110 µM)
LC50 (Bemisia tabaci [5]): 3730 µg/mL (≈ 9790 µM)

CCOP(=S)(OCC)Oc1nc(Cl)c(Cl)cc1Cl [CHLORPYRIFOS]
LC50 (Bemisia tabaci [1]): 581 µg/mL (≈ 1660 µM)
LC50 (Bemisia tabaci [2]): 722 µg/mL (≈ 2060 µM)
LC50 (Bemisia tabaci [3]): 1410 µg/mL (≈ 4030 µM)
RatioLC50 (Bemisia tabaci [6]): 3.65
LC50 (Bemisia tabaci [4]): 924 µg/mL (≈ 2640 µM)
LC50 (Bemisia tabaci [5]): 2120 µg/mL (≈ 6040 µM)

N#Cc1nn(-c2c(Cl)cc(C(F)(F)F)cc2Cl)c(N)c1[S+]([O-])C(F)(F)F (centres undefined) [FIPRONIL]
LC50 (Bemisia tabaci [1]): 5.96 µg/mL (≈ 13.6 µM)
LC50 (Bemisia tabaci [2]): 3.82 µg/mL (≈ 8.74 µM)
LC50 (Bemisia tabaci [3]): 3.51 µg/mL (≈ 8.03 µM)
LC50 (Bemisia tabaci [4]): 8.79 µg/mL (≈ 20.1 µM)
LC50 (Bemisia tabaci [5]): 9.13 µg/mL (≈ 20.9 µM)
